Test results published in patent US20200166517A1, “Screening Method for Identification of Neuroprotective Compounds” (Temple University-Of The Commonwealth System of Higher …, priority 2017, published 2020).
Entries after “also recorded” stand apart in the source; their conditions may differ.

Tests used:
Assay type in all cases: cell-based
[1] = test system: HEK293T cells; experiment: mCherry-NLS×3 expression and DAPI nuclear signal (toxicity / non-specific effect readout of the screen); settings: HEK293T co-transfected with DLK-GFP plus mCherry-NLS×3
Method: (§1) FIG. 7A depicts HEK293T cells co-transfected with DLK-GFP plus mCherry-NLS×3 and then treated with 2BP or vehicle were fixed to detect GFP, mCherry and the nuclear marker DAPI. […] FIG. 7B depicts design of the high-throughput screen for compounds that inhibit DLK-GFP puncta formation. FIG. 7C depicts compounds from the Prestwick Chemical Library™, which were spotted onto 96 well plates at 10 mM per compound in DMSO and diluted in DMEM prior to adding to transfected cells in duplicate at a final concentration of 10 micromolar (similar to the flow chart in FIG. 7B). 16 h later, cells were fixed in 4% PFA and stained with DAPI. High-content imaging was performed using an ImageXPress Image Analysis ‘TransFluor’ and Multi-wavelength scoring (MWS) modules. Data are plotted as total number of puncta (TransFluor Module) per total NLS (MWS module) for each compound. Drugs that decreased the nuclear NLS and/or DAPI markers below 3 times the […] were excluded due to likely toxicity or non-specific effects (plotted in grey). ‘Hits’ were drugs characterised as decreasing all ‘puncta’ readouts by more than 3 times the SD and included in 2 replicates.

[2] = molecular target: T1, DLK-GFP (Homo sapiens, UniProt Q12852); experiment: DLK-GFP puncta / membrane localization in transfected HEK293T cells (high-content imaging, ImageXpress)
T1 sequence (Q12852 1-892 isoform Q12852-2): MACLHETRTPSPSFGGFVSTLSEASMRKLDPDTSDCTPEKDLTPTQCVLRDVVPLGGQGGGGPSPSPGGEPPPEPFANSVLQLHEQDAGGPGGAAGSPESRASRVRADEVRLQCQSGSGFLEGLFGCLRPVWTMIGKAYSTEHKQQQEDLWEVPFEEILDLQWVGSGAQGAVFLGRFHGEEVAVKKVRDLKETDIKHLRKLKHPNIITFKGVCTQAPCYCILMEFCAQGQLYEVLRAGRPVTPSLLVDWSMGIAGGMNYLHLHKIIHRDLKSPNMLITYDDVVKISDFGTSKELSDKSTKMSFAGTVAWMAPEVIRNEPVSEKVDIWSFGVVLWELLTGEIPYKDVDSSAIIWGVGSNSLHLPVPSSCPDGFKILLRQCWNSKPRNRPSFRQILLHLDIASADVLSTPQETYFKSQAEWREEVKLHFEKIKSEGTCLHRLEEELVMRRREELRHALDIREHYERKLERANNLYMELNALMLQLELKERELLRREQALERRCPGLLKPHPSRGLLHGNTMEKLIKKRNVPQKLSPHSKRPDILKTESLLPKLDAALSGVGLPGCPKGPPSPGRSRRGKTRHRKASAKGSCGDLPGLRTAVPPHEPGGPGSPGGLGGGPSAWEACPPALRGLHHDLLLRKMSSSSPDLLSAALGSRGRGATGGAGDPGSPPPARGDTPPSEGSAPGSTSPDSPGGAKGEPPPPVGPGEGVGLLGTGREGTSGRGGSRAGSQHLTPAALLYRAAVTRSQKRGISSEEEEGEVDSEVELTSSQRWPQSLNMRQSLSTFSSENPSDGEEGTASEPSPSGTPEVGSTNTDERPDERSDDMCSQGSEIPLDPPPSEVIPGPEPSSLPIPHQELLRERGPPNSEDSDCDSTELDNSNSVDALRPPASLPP
Method: FIG. 3A: HEK293T cells were transfected with wtDLK-GFP or DLK-CS-GFP and treated 4 h later with 2-Br or vehicle. Top: Live images of GFP fluorescence, acquired 8 h post-transfection. […] FIG. 3B: A subset of cells from FIG. 3A were fixed and immunostained with anti-GFP antibody. Images of GFP fluorescence (n=5 per condition) were analyzed by ImageXpress software. Palmitoylation-dependent differences in number of DLK-GFP puncta are readily detectable.
FIG. 6A depicts HEK293T cells transiently expressing DLK-GFP, fixed and immunostained with antibodies to detect GFP and the Golgi marker GM130. FIG. 6B depicts HEK293T cells, transfected as in FIG. 6A to express either wild type DLK-GFP (DLK-GFP) or a DLK palmitoylation site mutant (C127S-DLK-GFP). […] FIG. 6C depicts results from an experiment in which HEK293T cells were seeded into 12 wells of a 96-well plate and transfected with DLK-GFP and then treated with 2BP or vehicle (6 wells per condition). Cells were fixed in PFA and imaged using an ImageXpress High Content Imaging system to detect GFP signal. Assay quality was determined by calculating the z-prime (z′) for 6 determinations for each of the indicated conditions (z′=S/R, S=[(Mean of Vehicle treated−3×SD)−(Mean of 2BP−3×SD)], R=Vehicle Mean−2BP mean).
as §1
(§2) FIG. 8A depicts an experiment in which HEK293T cells transiently transfected with DLK-GFP and mCherry-NLS and subsequently incubated with the indicated concentrations of Ketoconazole or 20 μM 2BP 2 hours post-transfection for 16-18 h. Cells were fixed and stained with DAPI. Scale bar represents 50 μm. FIG. 8B depicts quantified DLK puncta/NLS and nuclear counts (DAPI) from cells transfected as in FIG. 8A and treated with the indicated concentrations of ketoconazole. FIG. 8C depicts an experiment in which transiently transfected HEK293T cells were prepared as in FIG. 8A and palmitoylation (HAM+) was detected using the ABE assay. HAM- sample was generated from an equal fraction of all conditions combined.
In transfected HEK 293T cells, GFP-tagged wild type DLK (wtDLK-GFP) clearly localizes to intracellular membranes (FIG. 3, top). These membranes are distinct from the vesicles reported in neurons (likely due to different trafficking of DLK in non-neuronal cells) and instead overlap with Golgi markers, likely because many mammalian palmitoyl acyltransferases (PATs) localize to the Golgi (Levy, 2011; Ohno, 2006). […] In identically thresholded images, wtDLK-GFP puncta could be readily observed, that were absent in the 2-Br-treated and DLK-CS-GFP images (FIG. 3A, bottom). It was thus reasoned that this palmitoylation-dependent change in DLK localization should be quantifiable using high-content imaging software. […] High-content imaging detection is thus well suited to identify novel pharmacological inhibitors of DLK palmitoylation.

[3] = test system: JNK3 activation by wtDLK-GFP; experiment: JNK3 activation by wtDLK-GFP in cotransfected HEK293T cells, detected by phosphoJNK antibody; settings: HEK293T cells expressing myc-JNK3 plus wtDLK-GFP; vs EtOH vehicle
Method: FIG. 2A: HEK293T cells expressing myc-JNK3 plus wtDLK-GFP were treated with the palmitoylation inhibitor 2-Bromopalmitate (2-Br) or EtOH (vehicle). […] FIG. 2B: HEK293T cells were transfected with myc-JNK3 plus either wtDLK-GFP or a DLK palmitoyl site mutant (DLK-CS-GFP). Only wtDLK-GFP activates JNK3, as detected by phosphoJNK antibody.

[4] = molecular target: T1, DLK-GFP; experiment: Acyl-Biotin Exchange (ABE) palmitoylation assay, DLK-GFP in HEK293T cells
From the text: FIG. 4 depicts an orthogonal assay to confirm mechanism of action (MOA) of HTS Hits. HEK293T cells were transfected with wt-DLK-GFP or DLK-CS-GFP and palmitoyl-proteins were isolated by Acyl-Biotin Exchange (ABE). Palmitoyl-DLK is robustly detected in ABE fractions but no ABE signal is seen from cells treated with 2-Br, or if DLK's palmitoyl-site is mutated. DLK expressed similarly in all conditions. (Holland, 2016)
as §2
HEK293T cells were transiently transfected with FIG. 9A) DLK-GFP, FIG. 9B) GAP43-Myc, FIG. 9C) and untagged PSD95 and incubated with 20 μM 2BP, or with 2.5 μM or 5 μM ketoconazole 2 h post-transfection for 16-18 h. Palmitoylation was detected using the ABE assay (left) and quantified from n=4 determinations per condition (right). HAM- includes an equal fraction of all conditions combined. […]
(§3) If changes in DLK localization observed by high-content imaging are indeed due to altered DLK palmitoylation then this should also be reflected in biochemical assays of DLK palmitoylation levels. Palmitoylation of numerous proteins, including DLK, has been previously monitored using a non-radioactive palmitoylation assay, Acyl-Biotin Exchange (ABE) (Holland, 2016; Thomas, 2012). […] WtDLK-GFP was robustly detected in ABE fractions but was absent from controls in which the essential ABE reagent hydroxylamine (NH2OH) was omitted (FIG. 4). […]

[5] = test system: GAP43-Myc; experiment: Acyl-Biotin Exchange (ABE) palmitoylation assay, GAP43-Myc in HEK293T cells; settings: 2.5 μM or 5 μM, 2 h post-transfection for 16-18 h, n=4; ANOVA not significant
Method: (§4) HEK293T cells were transiently transfected with FIG. 9A) DLK-GFP, FIG. 9B) GAP43-Myc, FIG. 9C) and untagged PSD95 and incubated with 20 μM 2BP, or with 2.5 μM or 5 μM ketoconazole 2 h post-transfection for 16-18 h. Palmitoylation was detected using the ABE assay (left) and quantified from n=4 determinations per condition (right). HAM- includes an equal fraction of all conditions combined. […] One-way ANOVA, Kruskal-Wallis post-hoc analysis; FIG. 9A) ANOVA p=0.0214, h=7.692, FIG. 9B) ANOVA not significant, FIG. 9C) ANOVA p=0.0158, h=8.290. Error bars represent SEM.
as §3, with “2012). ABE uses an exchange of thioester-linked acyl modifications (i.e. palmitoylation), for biotin, with the resultant biotinylated proteins being affinity-purified from cell lysates using neutravidin-conjugated beads.” for “2012).”

[6] = test system: PSD95; experiment: Acyl-Biotin Exchange (ABE) palmitoylation assay, untagged PSD95 in HEK293T cells; settings: 2.5 μM or 5 μM, 2 h post-transfection for 16-18 h, n=4; ANOVA p=0.0158
Method: as §4
as §3, with “2012). ABE uses an exchange of thioester-linked acyl modifications (i.e. palmitoylation), for biotin, with the resultant biotinylated proteins being affinity-purified from cell lysates using neutravidin-conjugated beads.” for “2012).”

[7] = test system: phospho-cJun; experiment: DLK-mediated phospho-cJun activation after NGF withdrawal in DRG neurons (Western blot); settings: DRG neurons DIV 7, 2.5 μM overnight pretreatment, 2.5 h NGF withdrawal; Bonferroni post-test p<0.01
Method: FIG. 10A depicts an experiment in which dorsal Root Ganglion (DRG) neurons were pretreated at 7 Days in vitro (DIV 7) with 2.5 μM Ketoconazole overnight or 20 μM 2BP for 2 h prior to a 2.5 h NGF withdrawal in presence of the indicated compound. Cells were lysed in SDS-PAGE loading buffer and levels of endogenous DLK, phospho-cJun and tubulin were detected by Western blot.
FIG. 10B depicts quantification of phospho-cJun normalised to -NGF vehicle treated cells. Two-way ANOVA indicates significant effects of interaction (p=0.0071), NGF (p=0.0026) and Ketoconazole (p=0.0001). The effect of Ketoconazole in DRGs undergoing NGF withdrawal was also significant as determined by the Bonferroni post-test (p<0.01). Error bars represent SEM.

## CCCCCCCCCCCCCCC(Br)C(=O)O (centres unmarked) [2-Br, 2-Bromopalmitate]
[1]
  mCherry-NLS×3 expression and DAPI signal: without affecting mCherry-NLS×3 expression or DAPI signal
[2]; HEK293T co-transfected with DLK-GFP plus mCherry-NLS×3
  DLK-GFP puncta: reduces DLK-GFP puncta
[2]; HEK293T transiently expressing DLK-GFP
  Golgi-associated clusters of DLK-GFP: diffuses the Golgi-associated clusters of DLK-GFP
[2]; HEK293T, fixed, anti-GFP immunostained, n=5 images per condition
  DLK localization quantified by ImageXpress 'TransFluor' module (number of DLK-GFP puncta): dramatically alters DLK localization
[2]; HEK293T, treated 4 h post-transfection, imaged 8 h post-transfection, thresholded images
  membrane-localized wtDLK-GFP puncta / DLK-GFP membrane association: completely disrupted DLK-GFP membrane association; also recorded: essentially absent
[3]
  JNK3 activation (phosphorylation) by wtDLK-GFP: blocks JNK3 activation; also recorded: prevented DLK-dependent phosphorylation of JNK3
[4]; HEK293T transfected with wtDLK-GFP
  palmitoyl-DLK signal in ABE fractions: no ABE signal

## CC(=O)N1CCN(c2ccc(OCC3COC(Cn4ccnc4)(c4ccc(Cl)cc4Cl)O3)cc2)CC1 (centres unmarked) [Ketoconazole]
[5]
  palmitoylation of GAP-43 (ABE): does not affect palmitoylation of GAP-43
[2]; 10 micromolar final, duplicate, 16 h, 96-well
  inhibition of DLK-GFP puncta formation (puncta per total NLS), rank in Prestwick Chemical Library screen: most potent compound to inhibit DLK-GFP puncta formation
[2]; HEK293T, DLK-GFP and mCherry-NLS, compound added 2 hours post-transfection for 16-18 h
  DLK-GFP puncta (DLK puncta/NLS), dose response: decreases DLK-GFP puncta
[4]; 2.5 μM or 5 μM, 2 h post-transfection for 16-18 h, n=4, ANOVA p=0.0214
  palmitoylation of DLK (ABE): significantly reduces palmitoylation of DLK
[4]; HEK293T, compound 2 hours post-transfection for 16-18 h
  DLK palmitoylation (ABE, HAM+), dose response: inhibits DLK palmitoylation in a dose dependent manner
[6]
  palmitoylation of PSD-95 (ABE): significantly reduces palmitoylation of DLK and PSD-95
[7]
  phospho-cJun normalised to -NGF vehicle treated cells: significantly decreases DLK-mediated phospho-cJun activation; also recorded: significant
